Assay [1] has as its target T1, p38MAPKγ (MAPK12) (Homo sapiens, UniProt P53778).
T1 construct: purchased Life Technologies
T1 sequence (P53778 1-367): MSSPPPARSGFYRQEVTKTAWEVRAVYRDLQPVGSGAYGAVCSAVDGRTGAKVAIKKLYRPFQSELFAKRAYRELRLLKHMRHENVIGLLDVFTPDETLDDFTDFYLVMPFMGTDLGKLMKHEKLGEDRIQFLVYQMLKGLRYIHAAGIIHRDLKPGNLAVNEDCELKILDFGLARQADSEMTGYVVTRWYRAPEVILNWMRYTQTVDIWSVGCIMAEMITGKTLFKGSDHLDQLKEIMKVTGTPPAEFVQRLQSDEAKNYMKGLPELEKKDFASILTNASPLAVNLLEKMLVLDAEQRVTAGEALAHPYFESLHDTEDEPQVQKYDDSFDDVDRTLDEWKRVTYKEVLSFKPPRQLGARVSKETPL
The experiment in a line: p38 MAPKγ enzyme inhibition (Z-LYTE FRET). In kind it is biochemical. The settings on record: Table 2B, unit inferred; read-out: p38 MAPKγ (Enzyme Profile). In short, it runs like this:
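Enzyme (added at 800 ng/mL) was preincubated 2 h at RT with compound (solutions of 40 to 0.0012 μg/mL), then FRET peptide (8 μM) and ATP (400 μM), both as added, were reacted 1 h at RT. Protease development followed for 1 h; phosphorylation was read as the coumarin/fluorescein emission ratio.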

Assay [2] has as its target T2, p38 MAPKα isoform (MAPK14) (Homo sapiens, UniProt Q16539).
T2 construct: purchased Life Technologies
The experiment in a line: p38 MAPKα enzyme inhibition (Z-LYTE FRET). As to conditions: Table 2B, unit inferred; read-out: p38 MAPKα (Enzyme Profile). In kind it is biochemical. The essentials: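 Activity was measured indirectly as phosphorylation of a MAPKAP-K2-derived FRET peptide. Enzyme (added at 40 ng/mL) was preincubated 2 h at RT with compound (added solutions 40–0.0012 μg/mL).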

T2 sequence (Q16539 whole entry, canonical isoform): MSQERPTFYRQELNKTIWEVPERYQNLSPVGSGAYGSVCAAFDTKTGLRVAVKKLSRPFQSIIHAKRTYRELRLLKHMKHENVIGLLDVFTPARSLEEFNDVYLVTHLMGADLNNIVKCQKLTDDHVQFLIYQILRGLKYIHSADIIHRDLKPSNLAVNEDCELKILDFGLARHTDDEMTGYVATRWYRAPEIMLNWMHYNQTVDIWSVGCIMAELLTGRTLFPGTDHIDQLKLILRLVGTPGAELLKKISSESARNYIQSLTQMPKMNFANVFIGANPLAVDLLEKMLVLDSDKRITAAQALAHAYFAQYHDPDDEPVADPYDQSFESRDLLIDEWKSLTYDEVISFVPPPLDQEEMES

For `Cc1ccc(-n2nc(C(C)(C)C)cc2NC(=O)Nc2ccc(OCc3ccnc(Nc4cnc(C)c(C5CC5)n4)c3)c3ccccc23)cc1` [Example 150, 1-(3-(tert-butyl)-1-(p-tolyl)-1H-pyrazol-5-yl)-3-(4-((2-((6-cyclopropyl-5-methyl-pyrazin-2-yl)amino)pyridin-4-yl)methoxy)naphthalen-1-yl)urea], the IC50 in assay [1] worked out at 229 nM; in assay [2], 25 nM.

With `CCc1cnc(Nc2cc(COc3ccc(NC(=O)Nc4cc(C(C)(C)C)nn4-c4ccc(C)c(C)c4)c4ccccc34)ccn2)cn1` [Example 151, 1-(3-(tert-butyl)-1-(3,4-dimethylphenyl)-1H-pyrazol-5-yl)-3-(4-((2-((5-ethylpyrazin-2-yl)amino)pyridin-4-yl)methoxy)naphthalen-1-yl)urea], the values for the IC50 in assay [1] and in assay [2] were 439 nM and 35 nM, respectively.

As to `COCCNC(=O)c1cnc(Nc2cc(COc3ccc(NC(=O)Nc4cc(C(C)(C)C)nn4-c4cccc(C)c4)c4ccccc34)ccn2)cn1` [Example 152, 5-((4-(((4-(3-(3-(tert-butyl)-1-(m-tolyl)-1H-pyrazol-5-yl)ureido)naphthalen-1-yl)oxy)methyl)pyridin-2-yl)amino)-N-(2-methoxyethyl) pyrazine-2-carboxamide], the IC50 was 240 nM in assay [1] and 14 nM in assay [2].

Take `COCCCc1cncc(Nc2cc(COc3ccc(NC(=O)Nc4cc(C(C)(C)C)nn4-c4ccc(C)cc4)c4ccccc34)ccn2)n1` [Example 153, 1-(3-(tert-butyl)-1-(p-tolyl)-1H-pyrazol-5-yl)-3-(4-((2-((6-(3-methoxypropyl)pyrazin-2-yl)amino)pyridin-4-yl)methoxy)naphthalen-1-yl)urea]: the IC50 in assay [1] was determined as 77 nM; in assay [2], 20 nM.

Consider `COCCc1cncc(Nc2cc(COc3ccc(NC(=O)Nc4cc(C(C)(C)C)nn4-c4ccc(C)cc4)c4ccccc34)ccn2)n1` [Example 154, 1-(3-(tert-butyl)-1-(p-tolyl)-1H-pyrazol-5-yl)-3-(4-((2-((6-(2-methoxyethyl)pyrazin-2-yl)amino)pyridin-4-yl)methoxy)naphthalen-1-yl)urea], for which the IC50 in assay [1] was determined as 49 nM; in assay [2], 10 nM.

On to `Cc1ccc(-n2nc(C(C)(C)C)cc2NC(=O)Nc2ccc(OCc3ccnc(Nc4cncc(CCCO)n4)c3)c3ccccc23)cc1` [Example 155, 1-(3-(tert-butyl)-1-(p-tolyl)-1H-pyrazol-5-yl)-3-(4-((2-((6-(3-hydroxypropyl)pyrazin-2-yl)amino)pyridin-4-yl)methoxy)naphthalen-1-yl)urea], for which the IC50 in assay [1] is 31 nM; in assay [2], 8.9 nM.

As to `COCCNC(=O)c1cnc(Nc2cc(COc3ccc(NC(=O)Nc4cc(C(C)(C)C)nn4-c4ccc(C)c(C)c4)c4ccccc34)ccn2)cn1` [Example 156], the IC50 came out at 495 nM in assay [1] and 21 nM in assay [2].

Turning to `COCCOc1ccc(-n2nc(C(C)(C)C)cc2NC(=O)Nc2ccc(OCc3ccnc(Nc4cnccn4)c3)c3ccccc23)cc1C` [Example 157, 1-(3-(tert-butyl)-1-(4-(2-methoxyethoxy)-3-methyl-phenyl)-1H-pyrazol-5-yl)-3-(4-((2-(pyrazin-2-ylamino)pyridin-4-yl)methoxy)naphthalen-1-yl) urea], the values for the IC50 in assay [1] and in assay [2] were more than 14900 nM and 23 nM, respectively.

As to `COCC#Cc1cncc(Nc2cc(COc3ccc(NC(=O)Nc4cc(C(C)(C)C)nn4-c4ccc(C)cc4)c4ccccc34)ccn2)n1` [Example 158, 1-(3-(tert-butyl)-1-(p-tolyl)-1H-pyrazol-5-yl)-3-(4-((2-((6-(3-methoxyprop-1-yn-1-yl)pyrazin-2-yl)amino)pyridin-4-yl)methoxy)naphthalen-1-yl)urea], the IC50 in assay [1] was more than 15000 nM; in assay [2], 435 nM.

As to `CCc1cnc(Nc2cc(COc3ccc(NC(=O)Nc4cc(C(C)(C)C)nn4-c4cccc(C)c4)c4ccccc34)ccn2)cn1` [Example 159, 1-(3-(tert-butyl)-1-(m-tolyl)-1H-pyrazol-5-yl)-3-(4-((2-((5-ethylpyrazin-2-yl)amino)pyridin-4-yl)methoxy)naphthalen-1-yl)urea], the values for the IC50 in assay [1] and in assay [2] were 427 nM and 36 nM, respectively.

As to `Cc1cccc(-n2nc(C(C)(C)C)cc2NC(=O)Nc2ccc(OCc3ccnc(Nc4cncc(C5CC5)n4)c3)c3ccccc23)c1` [Example 160, 1-(3-(tert-butyl)-1-(m-tolyl)-1H-pyrazol-5-yl)-3-(4-((2-((6-cyclopropylpyrazin-2-yl)amino)pyridin-4-yl)methoxy)naphthalen-1-yl) urea], the IC50 is 510 nM in assay [1] and 34 nM in assay [2].

Turning to `Cc1ccc(-n2nc(C(C)(C)C)cc2NC(=O)Nc2ccc(OCc3ccnc(Nc4cncc(C5CCOCC5)n4)c3)c3ccccc23)cc1` [Example 161, 1-(3-(tert-butyl)-1-(p-tolyl)-1H-pyrazol-5-yl)-3-(4-((2-((6-(tetrahydro-2H-pyran-4-yl)pyrazin-2-yl)amino)pyridin-4-yl)methoxy)naphthalen-1-yl)urea], the IC50 is 74 nM in assay [1] and 10 nM in assay [2].

Consider `Cc1ccc(-n2nc(C(C)(C)C)cc2NC(=O)Nc2ccc(OCc3ccnc(Nc4cnc(C(=O)N5CC[C@@H](O)C5)cn4)c3)c3ccccc23)cc1` [Example 162, (R)-1-(3-(tert-butyl)-1-(p-tolyl)-1H-pyrazol-5-yl)-3-(4-((2-((5-(3-hydroxypyrrolidine-1-carbonyl)pyrazin-2-yl)amino)pyridin-4-yl)methoxy)naphthalen-1-yl)urea], for which the IC50 in assay [1] amounted to 37 nM; in assay [2], 4.7 nM.

Regarding `COC1CN(C(=O)c2cnc(Nc3cc(COc4ccc(NC(=O)Nc5cc(C(C)(C)C)nn5-c5ccc(C)cc5)c5ccccc45)ccn3)cn2)C1` [Example 163, 1-(3-(tert-butyl)-1-(p-tolyl)-1H-pyrazol-5-yl)-3-(4-((2-((5-(3-methoxyazetidine-1-carbonyl)pyrazin-2-yl)amino)pyridin-4-yl)methoxy)naphthalen-1-yl) urea], the IC50 came out at 389 nM in assay [1] and 19 nM in assay [2].

Take `CCc1ccc(-n2nc(C(C)(C)C)cc2NC(=O)Nc2ccc(OCc3ccnc(Nc4cnc(CO)cn4)c3)c3ccccc23)cc1` [Example 164, 1-(3-(tert-butyl)-1-(4-ethylphenyl)-1H-pyrazol-5-yl)-3-(4-((2-((5-(hydroxymethyl)pyrazin-2-yl)amino)pyridin-4-yl)methoxy)naphthalen-1-yl) urea]: the values for the IC50 in assay [1] and in assay [2] were 2340 nM and 6.8 nM, respectively.

As to `CCc1cccc(-n2nc(C(C)(C)C)cc2NC(=O)Nc2ccc(OCc3ccnc(Nc4cnccn4)c3)c3ccccc23)c1` [Example 165, 1-(3-(tert-butyl)-1-(3-ethyl-phenyl)-1H-pyrazol-5-yl)-3-(4-((2-(pyrazin-2-ylamino)pyridin-4-yl)methoxy)naphthalen-1-yl) urea], the figures for the IC50 in assay [1] and in assay [2] were 128 nM and 12 nM, respectively.

`COCc1cccc(-n2nc(C(C)(C)C)cc2NC(=O)Nc2ccc(OCc3ccnc(Nc4cnccn4)c3)c3ccccc23)c1` [Example 166, 1-(3-(tert-butyl)-1-(3-(methoxymethyl)phenyl)-1H-pyrazol-5-yl)-3-(4-((2-(pyrazin-2-ylamino)pyridin-4-yl)methoxy)naphthalen-1-yl)urea]: the IC50 in assay [1] was 52 nM; in assay [2], 6.2 nM.

For `CCc1cncc(Nc2cc(COc3ccc(NC(=O)Nc4cc(C(C)(C)C)nn4-c4ccc(C)c(F)c4)c4ccccc34)ccn2)n1` [Example 167, 1-(3-(tert-butyl)-1-(3-fluoro-4-methylphenyl)-1H-pyrazol-5-yl)-3-(4-((2-((6-ethylpyrazin-2-yl)amino)pyridin-4-yl)methoxy)naphthalen-1-yl) urea], the values for the IC50 in assay [1] and in assay [2] were 259 nM and 25 nM, respectively.

In the case of `CCc1cncc(Nc2cc(COc3ccc(NC(=O)Nc4cc(C(C)(C)C)nn4-c4ccc(OC)c(F)c4)c4ccccc34)ccn2)n1` [Example 168, 1-(3-(tert-butyl)-1-(3-fluoro-4-methoxyphenyl)-1H-pyrazol-5-yl)-3-(4-((2-((6-ethylpyrazin-2-yl)amino)pyridin-4-yl)methoxy)naphthalen-1-yl)urea], the IC50 is 1200 nM in assay [1] and 34 nM in assay [2].

`Cc1ncc(Nc2cc(COc3ccc(NC(=O)Nc4cc(C(C)(C)C)nn4-c4cccc(F)c4)c4ccccc34)ccn2)nc1C` [Example 169, 1-(3-(tert-butyl)-1-(3-fluorophenyl)-1H-pyrazol-5-yl)-3-(4-((2-((5,6-dimethylpyrazin-2-yl)amino)pyridin-4-yl)methoxy)naphthalen-1-yl)urea]: the results for the IC50 in assay [1] and in assay [2] were 449 nM and 26 nM, respectively.

For the compound `COc1cccc(-n2nc(C(C)(C)C)cc2NC(=O)Nc2ccc(OCc3ccnc(Nc4cnc(C)c(C)n4)c3)c3ccccc23)c1` [Example 170, 1-(3-(tert-butyl)-1-(3-methoxyphenyl)-1H-pyrazol-5-yl)-3-(4-((2-((5,6-dimethylpyrazin-2-yl)amino)pyridin-4-yl)methoxy)naphthalen-1-yl)urea], the IC50 was determined as 329 nM in assay [1] and 35 nM in assay [2].

Values taken from patent publication US11142515B2, “Pyrazolyl-ureas as kinase inhibitors” (RESPIVERT LIMITED, priority 2014, dated 2021).
